Experimental findings from PMC6199744, “Development of Chemical Proteomics for the Folateome and Analysis of the Kinetoplastid Folateome” (ACS Infectious Diseases, 2018) are described below.

Where two headings read alike, the source gives them in different places.

The target of assay [1] is T1, HeLa cell extract proteins (Homo sapiens, UniProt P30050).
T1 construct: endogenous in cells; host or cells: HeLa cell extract
Type of assay: binding.

Assay [2] addresses T2, HeLa cell extract proteins (Homo sapiens, UniProt Q9UBM7).
T2 construct: endogenous in cells; host or cells: HeLa cell extract
T2 sequence (Q9UBM7 1-475): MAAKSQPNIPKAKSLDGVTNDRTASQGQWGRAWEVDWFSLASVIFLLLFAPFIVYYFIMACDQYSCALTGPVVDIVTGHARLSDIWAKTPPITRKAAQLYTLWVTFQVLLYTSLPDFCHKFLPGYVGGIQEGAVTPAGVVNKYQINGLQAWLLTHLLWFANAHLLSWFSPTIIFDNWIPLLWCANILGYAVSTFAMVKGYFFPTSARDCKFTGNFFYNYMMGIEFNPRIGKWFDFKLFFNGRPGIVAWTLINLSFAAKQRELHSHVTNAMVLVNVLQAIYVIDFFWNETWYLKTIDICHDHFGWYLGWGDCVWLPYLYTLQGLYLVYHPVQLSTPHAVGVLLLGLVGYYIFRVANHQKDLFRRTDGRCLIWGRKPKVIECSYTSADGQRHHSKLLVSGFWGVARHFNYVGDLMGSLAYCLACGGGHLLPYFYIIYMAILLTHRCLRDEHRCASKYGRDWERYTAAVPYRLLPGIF
Type of assay: binding.

The target of assay [3] is T3, HeLa cell extract proteins (Homo sapiens, UniProt P49721).
T3 construct: endogenous in cells; host or cells: HeLa cell extract
It is filed as binding.

The target of assay [4] is T4, HeLa cell extract proteins (Homo sapiens, UniProt Q13011).
T4 construct: endogenous in cells; host or cells: HeLa cell extract
T4 sequence (Q13011 34-328): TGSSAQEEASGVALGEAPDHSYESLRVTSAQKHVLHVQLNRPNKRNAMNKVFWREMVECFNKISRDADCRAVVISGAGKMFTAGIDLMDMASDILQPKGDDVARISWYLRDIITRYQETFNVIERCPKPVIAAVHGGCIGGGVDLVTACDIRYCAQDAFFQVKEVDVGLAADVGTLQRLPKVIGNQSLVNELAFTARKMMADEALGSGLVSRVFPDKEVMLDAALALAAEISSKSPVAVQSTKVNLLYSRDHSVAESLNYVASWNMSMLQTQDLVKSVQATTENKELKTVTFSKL
Type of assay: binding.

The target in assay [5] is T5, HeLa cell extract proteins (Homo sapiens, UniProt Q9NTG7).
T5 construct: endogenous in cells; host or cells: HeLa cell extract
T5 sequence (Q9NTG7 1-399): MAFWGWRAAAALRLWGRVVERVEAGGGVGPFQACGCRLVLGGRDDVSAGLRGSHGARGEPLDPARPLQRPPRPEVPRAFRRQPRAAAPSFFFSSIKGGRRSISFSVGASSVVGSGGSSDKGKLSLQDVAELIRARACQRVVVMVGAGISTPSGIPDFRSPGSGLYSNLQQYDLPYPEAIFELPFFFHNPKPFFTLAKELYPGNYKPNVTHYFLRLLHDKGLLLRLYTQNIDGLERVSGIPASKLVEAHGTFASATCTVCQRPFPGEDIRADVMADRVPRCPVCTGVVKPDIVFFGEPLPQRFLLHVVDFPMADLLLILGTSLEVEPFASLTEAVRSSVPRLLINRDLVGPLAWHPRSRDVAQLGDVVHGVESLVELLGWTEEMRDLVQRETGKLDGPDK
Type of assay: binding.

Assay [6] has as its target T6, HeLa cell extract proteins (Homo sapiens, UniProt P31947).
T6 construct: endogenous in cells; host or cells: HeLa cell extract
T6 sequence (P31947 1-248): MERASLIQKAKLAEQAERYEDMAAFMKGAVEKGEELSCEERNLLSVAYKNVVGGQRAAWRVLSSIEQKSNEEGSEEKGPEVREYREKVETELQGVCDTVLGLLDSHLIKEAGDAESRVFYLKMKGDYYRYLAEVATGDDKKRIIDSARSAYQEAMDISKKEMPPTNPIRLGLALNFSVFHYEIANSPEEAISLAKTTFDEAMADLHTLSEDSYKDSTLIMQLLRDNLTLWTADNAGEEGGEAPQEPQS
It is filed as binding.

In assay [7] the target is T7, HeLa cell extract proteins (Homo sapiens, UniProt P38606).
T7 construct: endogenous in cells; host or cells: HeLa cell extract
Type of assay: binding.

Assay [8] deals with T8, HeLa cell extract proteins (Homo sapiens, UniProt Q15907).
T8 construct: endogenous in cells; host or cells: HeLa cell extract
T8 sequence (Q15907 1-218): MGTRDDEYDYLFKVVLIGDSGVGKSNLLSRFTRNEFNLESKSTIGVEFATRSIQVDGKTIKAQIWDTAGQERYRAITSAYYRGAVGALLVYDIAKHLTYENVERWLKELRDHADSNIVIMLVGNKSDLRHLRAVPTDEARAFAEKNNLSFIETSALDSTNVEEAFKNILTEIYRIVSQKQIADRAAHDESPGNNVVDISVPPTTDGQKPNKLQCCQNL
Type of assay: binding.

The target in assay [9] is T9, HeLa cell extract proteins (Homo sapiens, UniProt P26447).
T9 construct: endogenous in cells; host or cells: HeLa cell extract
Type of assay: binding.

The target of assay [10] is T10, HeLa cell extract proteins (Homo sapiens, UniProt Q9NR28).
T10 construct: endogenous in cells; host or cells: HeLa cell extract
T10 sequence (Q9NR28 22-239): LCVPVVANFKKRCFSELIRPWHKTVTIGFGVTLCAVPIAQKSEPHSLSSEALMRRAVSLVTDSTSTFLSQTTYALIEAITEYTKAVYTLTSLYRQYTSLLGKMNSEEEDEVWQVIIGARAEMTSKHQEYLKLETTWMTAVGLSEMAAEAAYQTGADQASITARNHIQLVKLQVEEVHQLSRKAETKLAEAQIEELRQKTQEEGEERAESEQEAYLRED
It is filed as binding.

For assay [11], the target named is T11, HeLa cell extract proteins (Homo sapiens, UniProt Q9NU22).
T11 construct: endogenous in cells; host or cells: HeLa cell extract
Type of assay: binding.

A further assay concerns the target T12, DHFR (Homo sapiens, UniProt P00374).
T12 sequence (P00374 1-187): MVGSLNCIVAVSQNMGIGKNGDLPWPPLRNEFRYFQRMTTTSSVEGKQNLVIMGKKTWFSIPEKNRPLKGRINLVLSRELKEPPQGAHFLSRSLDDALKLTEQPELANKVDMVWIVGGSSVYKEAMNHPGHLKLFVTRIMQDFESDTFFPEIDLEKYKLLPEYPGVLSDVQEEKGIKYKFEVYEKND
The assay is described as follows: Multitargeted bead mixture competition, HeLa cell extract. Type of assay: binding.

The subject of assay [12] is CHOLINE KINASE (TB427TMP.18.0017). The assay is described as follows: Multitargeted bead mixture competition. Type of assay: binding, T. brucei. The settings on record: for fold change vs vehicle control / fold change - vehicle control: protein TB427TMP.18.0017 CHOLINE KINASE; for fold change vs vehicle control: vehicle control = 1.
In assay [13] the test system is phenylalanine-4-hydroxylase (PAH). The assay is described as follows: Multitargeted bead mixture competition. It is filed as binding, L. major. The settings on record: for fold change vs vehicle control: protein LMJF.28.1280 PHENYLALANINE-4-HYDROXYLASE,PHENYLALANINE-4-HYDROXYLASE, PUTATIVE; for binding and competition to phenylalanine-4-hydroxylase (PAH): bead mixture, L. major lysate; for fold change: protein LMJF.28.1280 PHENYLALANINE-4-HYDROXYLASE, vehicle control = 1.

In the case of `Nc1nc2c(c(=O)[nH]1)N(C=O)C(CNc1ccc(C(=O)N[C@@H](CCC(=O)O)C(=O)O)cc1)CN2` (stereo partly drawn) [LEU, leucovorin], the “fold changes relative to vehicle control” value in assay [1] (HeLa, captured protein RPL12) is 1.11; in [2] (HeLa, captured protein DHCR7) it was 0.99; in assay [3] (HeLa, captured protein PSMB2) it was 1.2; in [4] (HeLa, protein ECH1), 1.04; in assay [5] (HeLa, captured protein SIRT3) it was 1; in [6] (HeLa, protein SFN) it was 1.07. The “fold changes relative to vehicle control” value turned out to be 1 in [7] (HeLa, protein ATP6V1A); 0.87 in assay [8] (HeLa, protein RAB11B); 0.95 in assay [9] (protein S100A4, HeLa); 1.06 in assay [10] (HeLa, protein DIABLO (DIABLO HOMOLOG, MIT[…])); 0.96 in [11] (HeLa, protein MDN1); 2.72 at DHFR (HeLa, protein DHFR (SIMILAR TO DIHYDROFOLATE REDUCTASE ISOFORM 2, PARTIAL)). For the same compound, the figures for the “fold change vs vehicle control” value in assay [12] and in [13] were 0.95 and 0.99, respectively.

In the case of `Nc1nc2[nH]cc(CCc3ccc(C(=O)N[C@@H](CCC(=O)O)C(=O)O)cc3)c2c(=O)[nH]1` [PTX, pemetrexed], the “fold changes relative to vehicle control” value turned out to be 1.13 in assay [1]; 0.98 in assay [2]; 1.13 in assay [3]; 1.01 in assay [4]; 0.95 in assay [5]; 1.28 in assay [6]. Further, the “fold changes relative to vehicle control” value turned out to be 0.9 in [7]; 0.94 in assay [8]; 0.99 in assay [9]; 1.01 in assay [10]; 0.94 in assay [11]; 1.09 on DHFR. On DHFR, the “binding to DHFR” value is on record as “did not appear to bind DHFR”. Also, the “fold change vs vehicle control” value in assay [12] is given as 0.98; in assay [13] it was 0.28. Besides, the “binding and competition to phenylalanine-4-hydroxylase (PAH)” value in assay [13] was “binding and competition”.

As for `CCCCCCOc1ccc(Cc2cnc(N)nc2N)cc1` [compound 1], the “fold changes relative to vehicle control” value is 1.15 in [1] (protein RPL12, HeLa); 0.95 in [2] (captured protein DHCR7, HeLa); 1.03 in assay [3] (HeLa, protein PSMB2); 0.95 in assay [4] (HeLa, protein ECH1); 1 in assay [5] (protein SIRT3, HeLa); 1.27 in [6] (protein SFN, HeLa). The “fold changes relative to vehicle control” value in assay [7] (protein ATP6V1A, HeLa) worked out at 1.04; in [8] (protein RAB11B, HeLa), 1.02; in assay [9] (protein S100A4, HeLa), 0.83; in assay [10] (captured protein DIABLO, HeLa), 1.09; in assay [11] (captured protein MDN1, HeLa), 0.94; on DHFR (captured protein DHFR, HeLa), 0.46. The “binding to DHFR” value on DHFR (bead mixture, HeLa cell extract) is “found to bind DHFR”. Further, the “fold change - vehicle control” value in assay [12] amounted to 1.05. Further, the fold change in assay [13] turned out to be 1.16.

As for `CCCCCCOc1cccc(Cc2cnc(N)nc2N)c1` [compound 2], the “fold changes relative to vehicle control” value in assay [1] (protein RPL12, HeLa) was found to be 1.24; in [2] (captured protein DHCR7, HeLa), 1.03; in assay [3] (HeLa, protein PSMB2), 1.24; in assay [4] (HeLa, protein ECH1), 0.91; in [5] (protein SIRT3, HeLa), 1; in [6] (protein SFN, HeLa) it was 1.83. For the same compound, the “fold changes relative to vehicle control” value in assay [7] (protein ATP6V1A, HeLa) stood at 1.5; in assay [8] (protein RAB11B, HeLa), 1.44; in assay [9] (protein S100A4, HeLa), 1.43; in assay [10] (captured protein DIABLO, HeLa) it was 0.97; in [11] (captured protein MDN1, HeLa), 0.87; at DHFR (captured protein DHFR, HeLa), 2.77. Further, the “fold change - vehicle control” value in assay [12] amounted to 1.11. Moreover, the fold change in assay [13] was 1.1.

For `Nc1nc2cccc(-c3ccccc3)c2n1Cc1ccc(Cl)c(Cl)c1` [compound 3], the “fold changes relative to vehicle control” value is listed as 1.08 in [1] (protein RPL12, HeLa); 1.02 in assay [2] (captured protein DHCR7, HeLa); 1.07 in assay [3] (HeLa, protein PSMB2); 1 in assay [4] (HeLa, protein ECH1); 1.16 in assay [5] (protein SIRT3, HeLa); 0.82 in assay [6] (protein SFN, HeLa). Besides, the “fold changes relative to vehicle control” value in assay [7] (protein ATP6V1A, HeLa) was determined as 0.83; in assay [8] (protein RAB11B, HeLa) it was 0.97; in assay [9] (protein S100A4, HeLa), 1.15; in assay [10] (captured protein DIABLO, HeLa) it was 1.01; in assay [11] (captured protein MDN1, HeLa) it was 1.17; at DHFR (captured protein DHFR, HeLa), 1.13. Moreover, in [12] (multitargeted bead mixture, free ligand 100 μM, T. brucei lysate, TB427TMP.18.0017 CHOLINE KINASE), the “percentage of competition from bead binding” value is -1%. Further, in [12], the “fold change - vehicle control” value is listed as 1. Further, the “binding and competition to phenylalanine-4-hydroxylase (PAH)” value in [13] is “binding and competition”. Besides, the fold change in assay [13] was 0.81.
